Laboratory results published in PubChem BioAssay AID328 (DTP/NCI, 2004).
Several values for one entry are separate records, joined by “and”; a condition that tells them apart may be missing. Identical values can stand only once. Inconclusive results and toxic doses are left out. Residues, ends and D or L forms follow the SMILES beside them.

Test system: BDF1 mice, P388 leukemia ip, median survival T/C
Experiment: NCI In Vivo Anticancer Drug Screen. Data for tumor model P388 Leukemia (intraperitoneal) in B6D2F1 (BDF1) mice
Details: endpoint: median survival time, higher = longer survival
In short: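 T/C = treated-group survival ÷ vehicle-control survival; tumour transplanted into mice before dosing.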

[1] = dose: 25.0 mg/kg/injection, schedule: Q01DX009 (ip), vehicle: saline with Tween-80
[2] = dose: 50.0 mg/kg/injection, schedule: Q01DX009 (ip), vehicle: saline with Tween-80
[3] = dose: 100.0 mg/kg/injection, schedule: Q01DX009 (ip), vehicle: saline with Tween-80
[4] = dose: 50.0 mg/kg/injection, schedule: Q01DX005 (ip), vehicle: saline with Tween-80
[5] = dose: 100.0 mg/kg/injection, schedule: Q01DX005 (ip), vehicle: saline with Tween-80
[6] = dose: 100.0 mg/kg/injection, schedule: Q04DX003 (ip), vehicle: saline with Tween-80
[7] = dose: 200.0 mg/kg/injection, schedule: Q04DX003 (ip), vehicle: saline with Tween-80
[8] = dose: 400.0 mg/kg/injection, schedule: Q04DX003 (ip), vehicle: saline with Tween-80
[9] = dose: 200.0 mg/kg/injection, schedule: Q01DX009 (ip), vehicle: saline with Tween-80

For `Oc1cccc2c1[O][Sb][O]2`, which T/C (dose: 3.0 mg/kg/injection, schedule: Q01DX009 (ip), vehicle: saline with Tween-80) is on record?
The T/C was 102 % of control.

What about the T/C (dose: 6.0 mg/kg/injection, schedule: Q01DX009 (ip), vehicle: saline with Tween-80) of the same compound?
Its T/C is 110 % of control.

And the T/C (dose: 11.0 mg/kg/injection, schedule: Q04DX003 (ip), vehicle: saline with Tween-80)?
The T/C was 112 % of control.

And the T/C (dose: 16.5 mg/kg/injection, schedule: Q04DX003 (ip), vehicle: saline with Tween-80)?
Its T/C is 112 % of control.

What about the T/C [1] of the same compound?
The T/C was 110 % of control.

What does the source list for `NNC(=O)c1cccc(N)c1`?
T/C [1]: 100 % of control; T/C [2]: 90 % of control; T/C [3]: 100 % of control

What does the source list for `C[C@]12CC[C@H](O)C[C@@]1(O)CC[C@@H]1[C@@H]2CC[C@]2(C)[C@@H](c3ccc(=O)oc3)CC[C@]12O`?
T/C (dose: 1.25 mg/kg/injection, schedule: Q01DX009 (ip), vehicle: Klucel (hydroxypropylcellulose) (HPC)): 93 % of control; T/C (dose: 2.5 mg/kg/injection, schedule: Q01DX009 (ip), vehicle: Klucel (hydroxypropylcellulose) (HPC)): 94 % of control; T/C (dose: 5.0 mg/kg/injection, schedule: Q01DX009 (ip), vehicle: Klucel (hydroxypropylcellulose) (HPC)): 99 % of control; T/C (dose: 6.2 mg/kg/injection, schedule: Q01DX010 (ip), vehicle: carboxymethylcellulose (CMC)): 105 % of control; T/C (dose: 10.0 mg/kg/injection, schedule: Q01DX009 (ip), vehicle: Klucel (hydroxypropylcellulose) (HPC)): 101 % of control; T/C (dose: 12.5 mg/kg/injection, schedule: Q01DX010 (ip), vehicle: carboxymethylcellulose (CMC)): 90 % of control; T/C (dose: 20.0 mg/kg/injection, schedule: Q01DX009 (ip), vehicle: Klucel (hydroxypropylcellulose) (HPC)): 105 % of control; T/C (dose: 25.0 mg/kg/injection, schedule: Q01DX010 (ip), vehicle: carboxymethylcellulose (CMC)): 100 % of control

Which results are given for `CC(C)(C)OC(=O)N/N=C1\CC2CCC1C2` (configuration not stated)?
T/C (dose: 6.25 mg/kg/injection, schedule: Q01DX009 (ip), vehicle: saline with Tween-80): 96 % of control; T/C (dose: 12.5 mg/kg/injection, schedule: Q01DX009 (ip), vehicle: saline with Tween-80): 96 % of control; T/C (dose: 13.75 mg/kg/injection, schedule: Q04DX003 (ip), vehicle: Klucel (hydroxypropylcellulose) (HPC)): 95 % of control; T/C [1]: 100 % of control; T/C (dose: 27.5 mg/kg/injection, schedule: Q04DX003 (ip), vehicle: Klucel (hydroxypropylcellulose) (HPC)): 100 % of control; T/C (dose: 35.0 mg/kg/injection, schedule: Q01DX009 (ip), vehicle: Klucel (hydroxypropylcellulose) (HPC)): 105 % of control; T/C (dose: 55.0 mg/kg/injection, schedule: Q01DX009 (ip), vehicle: Klucel (hydroxypropylcellulose) (HPC)): 100 % of control; T/C (dose: 55.0 mg/kg/injection, schedule: Q04DX003 (ip), vehicle: Klucel (hydroxypropylcellulose) (HPC)): 100 % of control; T/C (dose: 80.0 mg/kg/injection, schedule: Q04DX003 (ip), vehicle: Klucel (hydroxypropylcellulose) (HPC)): 105 % of control; T/C (dose: 125.0 mg/kg/injection, schedule: Q04DX003 (ip), vehicle: Klucel (hydroxypropylcellulose) (HPC)): 110 % of control

With `O=[N+]([O-])c1cnc2ccnn2c1` as the compound, how does the T/C (dose: 12.5 mg/kg/injection, schedule: Q01DX009 (ip), vehicle: Klucel (hydroxypropylcellulose) (HPC)) read?
The T/C was 100 % of control.

And the T/C (dose: 25.0 mg/kg/injection, schedule: Q01DX009 (ip), vehicle: Klucel (hydroxypropylcellulose) (HPC))?
The T/C was 100 % of control.

What about the T/C (dose: 50.0 mg/kg/injection, schedule: Q01DX009 (ip), vehicle: Klucel (hydroxypropylcellulose) (HPC)) of the same compound?
The T/C was 100 % of control.

And the T/C (dose: 100.0 mg/kg/injection, schedule: Q01DX009 (ip), vehicle: Klucel (hydroxypropylcellulose) (HPC))?
The T/C was 95 % of control.

What does the source list for `O=C(Nc1cccc2c(OC(=O)C(Cl)Cl)c(N=Nc3ccc(S(=O)(=O)Nc4nccs4)cc3)cc(N=Nc3ccc(S(=O)(=O)Nc4nccs4)cc3)c12)C(Cl)Cl` (tested in a mixture with another compound)?
T/C [4]: 103 % of control; T/C [2]: 110 % of control; T/C [5]: 103 % of control; T/C [3]: 124 % of control

With `COc1ccc(N/N=C(\C)C2(O)Cc3c(O)c4c(c(O)c3C(OC3CC(N)C(O)C(C)O3)C2)C(=O)c2c(OC)cccc2C4=O)cc1` (configuration not stated) as the compound, how does the T/C (dose: 1.73 mg/kg/injection, schedule: Q04DX003 (ip), vehicle: water) read?
The T/C was 123 % of control.

What about the T/C (dose: 4.8 mg/kg/injection, schedule: Q04DX003 (ip), vehicle: water) of the same compound?
The T/C was 157 % of control.

Which results are given for `NCCCCC(N)C(=O)NC(CCCN=C(N)N)C(=O)O` (stereo not drawn) (H-Lys-Arg-OH; configuration not given here)?
T/C (dose: 3.12 mg/kg/injection, schedule: Q01DX009 (ip), vehicle: water): 101 % of control; T/C (dose: 6.25 mg/kg/injection, schedule: Q01DX009 (ip), vehicle: water): 97 % of control and 99 % of control and 117 % of control; T/C (dose: 12.5 mg/kg/injection, schedule: Q01DX009 (ip), vehicle: water): 105 % of control and 109 % of control; T/C (dose: 25.0 mg/kg/injection, schedule: Q01DX009 (ip), vehicle: water): 101 % of control and 104 % of control and 118 % of control; T/C (dose: 50.0 mg/kg/injection, schedule: Q01DX009 (ip), vehicle: water): 93 % of control and 94 % of control and 95 % of control; T/C (dose: 100.0 mg/kg/injection, schedule: Q01DX009 (ip), vehicle: water): 90 % of control and 100 % of control and 113 % of control; T/C (dose: 200.0 mg/kg/injection, schedule: Q01DX009 (ip), vehicle: water): 109 % of control

What does the source list for `C=CCN(CC=C)P(=O)(N1CC1)N1CC1C` (configuration not stated)?
T/C (dose: 0.25 mg/kg/injection, schedule: Q04DX003 (ip), vehicle: saline): 120 % of control; T/C (dose: 0.31 mg/kg/injection, schedule: Q01DX009 (ip), vehicle: saline): 100 % of control; T/C (dose: 0.5 mg/kg/injection, schedule: Q01DX009 (ip), vehicle: saline): 156 % of control and 158 % of control; T/C (dose: 0.83 mg/kg/injection, schedule: Q01DX009 (ip), vehicle: saline): 150 % of control and 166 % of control and 173 % of control; T/C (dose: 1.65 mg/kg/injection, schedule: Q04DX003 (ip), vehicle: saline): 159 % of control; T/C (dose: 1.8 mg/kg/injection, schedule: Q01DX009 (ip), vehicle: saline): 91 % of control; T/C (dose: 2.5 mg/kg/injection, schedule: Q04DX003 (ip), vehicle: saline): 163 % of control and 190 % of control; T/C (dose: 3.75 mg/kg/injection, schedule: Q04DX003 (ip), vehicle: saline): 163 % of control; T/C (dose: 5.0 mg/kg/injection, schedule: Q04DX003 (ip), vehicle: saline): 90 % of control

Which results are given for `COC(=O)c1nc2c(C)nc(N(C)C)nc2[nH]c1=O`?
T/C [6]: 101 % of control; T/C [7]: 107 % of control; T/C [8]: 100 % of control

Which T/C [4] does the source give for `CC(=O)OC(=O)C(Cc1ccccc1)NC(=O)C(N)CCCN=C(N)N` (configuration not stated) here?
Its T/C is 98 % of control.

And the T/C [5]?
The T/C was 103 % of control.

What does the source list for `CCc1c(C(OC)OC)[nH]c(=S)[nH]c1=O`?
T/C [6]: 91 % of control; T/C [7]: 91 % of control; T/C [8]: 87 % of control

`O=C(CCN1CC1)Nc1ccc(Cl)c(Cl)c1` was tested. Which T/C (dose: 25.0 mg/kg/injection, schedule: Q04DX003 (ip), vehicle: Klucel (hydroxypropylcellulose) (HPC)) did it give?
The T/C was 90 % of control.

And the T/C (dose: 50.0 mg/kg/injection, schedule: Q04DX003 (ip), vehicle: Klucel (hydroxypropylcellulose) (HPC))?
The T/C was 104 % of control.

And the T/C (dose: 100.0 mg/kg/injection, schedule: Q04DX003 (ip), vehicle: Klucel (hydroxypropylcellulose) (HPC))?
Its T/C is 100 % of control.

Which results are given for `O=C(O)C(O)C(O)C(=O)O.O=C(O)C(O)C(O)C(=O)O.[O]=[V].[O]=[V]` (configuration not stated)?
T/C (dose: 3.13 mg/kg/injection, schedule: Q01DX009 (ip), vehicle: saline): 110 % of control; T/C (dose: 6.25 mg/kg/injection, schedule: Q01DX009 (ip), vehicle: saline): 90 % of control and 100 % of control; T/C (dose: 6.25 mg/kg/injection, schedule: Q04DX003 (ip), vehicle: saline): 100 % of control; T/C (dose: 12.5 mg/kg/injection, schedule: Q01DX009 (ip), vehicle: saline): 95 % of control and 100 % of control; T/C (dose: 12.5 mg/kg/injection, schedule: Q04DX003 (ip), vehicle: saline): 95 % of control and 100 % of control; T/C (dose: 25.0 mg/kg/injection, schedule: Q01DX009 (ip), vehicle: saline): 90 % of control and 88 % of control; T/C (dose: 25.0 mg/kg/injection, schedule: Q04DX003 (ip), vehicle: saline): 100 % of control

How did the T/C (dose: 0.2 micrograms/kg/injection, schedule: Q01DX009 (ip), vehicle: saline) turn out when `CCC(=O)N(C)[C@@H](C)C(=O)O[C@H]1CC(=O)N(C)c2cc(cc(OC)c2Cl)C/C(C)=C/C=C[C@@H](OC)[C@@]2(O)C[C@H](OC(=O)N2)[C@@H](C)[C@@H]2O[C@@]12C` was run?
Its T/C is 120 % of control.

What about the T/C (dose: 1.6 micrograms/kg/injection, schedule: Q01DX009 (ip), vehicle: saline) of the same compound?
The T/C was 154 % of control.

And the T/C (dose: 3.1 micrograms/kg/injection, schedule: Q01DX009 (ip), vehicle: saline)?
Its T/C is 150 % of control.

And the T/C (dose: 12.5 micrograms/kg/injection, schedule: Q01DX009 (ip), vehicle: saline)?
The T/C was 104 % of control.

Which results are given for `O=C1c2ccccc2C(=O)N1CCCn1c2ccccc2c2cnccc21`?
T/C [3]: 105 % of control; T/C [6]: 95 % of control; T/C [9]: 90 % of control; T/C [7]: 100 % of control; T/C (dose: 400.0 mg/kg/injection, schedule: Q01DX009 (ip), vehicle: saline with Tween-80): 110 % of control; T/C [8]: 90 % of control

For `O=C(O)COc1ccc(Cl)cc1Cl`, which T/C [2] is on record?
The T/C was 118 % of control.

What about the T/C [9] of the same compound?
Its T/C is 90 % of control.
